Reference: article PMC7029851, “Antibacterial activity of novel dual bacterial DNA type II topoisomerase inhibitors” (PLoS ONE, 2020)
Structures can show the parent of a compound that is named as a salt. Where two headings read alike, the source gives them in different places.

Assays:
[1] = molecular target: T1, E. coli DNA gyrase (Escherichia coli, UniProt P0AES4); test: E. coli DNA gyrase supercoiling gel assay; assay type: biochemical
T1 construct: purchased Inspiralis (Norwich, UK)
Procedure: (§1) S. aureus and E. coli DNA gyrase supercoiling and topo IV decatenation assay kits, as well as human topoisomerase II decatenation assay kits, were provided by Inspiralis (Norwich, UK). Assays were performed according to the manufacturer’s instructions. The compounds were serially diluted (1:3 dilutions starting from a 300 μM final concentration) and assayed in a reaction mixture to obtain concentration-response curves in two different replicate experiments. The final concentration of DMSO in the assays was 1% (v/v). The reactions were terminated by the addition of 30 μl chloroform/isoamyl alcohol (26:1) and 30 μl Stop Dye (40% sucrose, 100 mM Tris HCl pH 7.5, 1 mM EDTA, 0.5 μg/ml bromophenol blue), after which the samples were loaded onto a 1.0% TAE ([…]) gel that was then run at 80 V for 2 hours. DNA bands were visualized by ethidium bromide staining the gel for 10 minutes, which was then destained for 10 minutes in water and analysed using gel documentation equipment (Syngene, Cambridge, UK). The DNA in each band was quantitated using Syngene Gene Tools software. Raw gel data (fluorescent band volumes) were converted by the software to percentages of the control (the fully supercoiled or decatenated DNA band). […] The global curve fit non-linear regression tool was used to calculate the IC50 values. The results are expressed as the average values obtained after calculating the IC50 from each replicate run.

[2] = molecular target: T2, E. coli Topoisomerase IV (Escherichia coli, UniProt P0AFI2); test: E. coli topoisomerase IV decatenation gel assay; assay type: biochemical
T2 construct: purchased Inspiralis (Norwich, UK)
Procedure: as §1

[3] = molecular target: T3, S. aureus DNA gyrase (Staphylococcus aureus, UniProt P20831); test: S. aureus DNA gyrase supercoiling gel assay; assay type: biochemical
T3 construct: purchased Inspiralis (Norwich, UK)
Procedure: as §1

[4] = molecular target: T4, S. aureus Topoisomerase IV (Staphylococcus aureus, UniProt P0C1U9); test: S. aureus topoisomerase IV decatenation gel assay; assay type: biochemical
T4 construct: purchased Inspiralis (Norwich, UK)
Procedure: as §1

[5] = molecular target: T5, Human Topoisomerase II (Homo sapiens, UniProt P11388); test: Human topoisomerase II decatenation gel assay; assay type: biochemical
T5 construct: purchased Inspiralis (Norwich, UK)
Procedure: as §1

[6] = tested on: S. aureus ATCC 29213; test: MIC, broth microdilution; assay type: cell-based, Staphylococcus aureus; settings: Staphylococcus aureus, ATCC29213, S. aureus ATCC 29213, ciprofloxacin-susceptible
Procedure: (§2) MICs were determined by the broth microdilution method (the agar dilution method was used only for N. gonorrhoeae) according to CLSI guidelines.

[7] = tested on: E. coli ATCC 25922; test: MIC, broth microdilution; assay type: cell-based; settings: Escherichia coli, ATCC25922; E. coli ATCC 25922, ciprofloxacin-susceptible
Procedure: as §2

[8] = tested on: E. faecalis ATCC 29212; test: MIC, broth microdilution; assay type: cell-based; settings: Enterococcus faecalis, ATCC29212; E. faecalis ATCC 29212, ciprofloxacin-susceptible
Procedure: as §2

[9] = tested on: H. influenzae ATCC 49766; test: MIC, broth microdilution; assay type: cell-based; settings: Haemophilus influenzae, ATCC49766; H. influenzae ATCC 49766, ciprofloxacin-susceptible
Procedure: as §2

[10] = tested on: K. pneumoniae ATCC 700603; test: MIC, broth microdilution; assay type: cell-based; settings: Klebsiella pneumoniae, ATCC700603; K. pneumoniae ATCC 700603, ciprofloxacin-susceptible
Procedure: as §2

[11] = tested on: P. aeruginosa ATCC 27853; test: MIC, broth microdilution; assay type: cell-based; settings: Pseudomonas aeruginosa, ATCC27853; P. aeruginosa ATCC 27853, ciprofloxacin-susceptible
Procedure: as §2

[12] = tested on: S. aureus BAA-1720; test: MIC, broth microdilution; assay type: cell-based; settings: Staphylococcus aureus, BAA1720; S. aureus BAA-1720, ciprofloxacin-resistant
Procedure: as §2

[13] = tested on: S. pneumoniae ATCC 49619; test: MIC, broth microdilution; assay type: cell-based; settings: Streptococcus pneumoniae, ATCC49619; S. pneumoniae ATCC 49619, ciprofloxacin-susceptible
Procedure: as §2

[14] = tested on: S. pyogenes APV00083; test: MIC, broth microdilution; assay type: cell-based; settings: Streptococcus pyogenes; S. pyogenes APV00083, ciprofloxacin-susceptible
Procedure: as §2

[15] = tested on: N. gonorrhoeae ATCC 19424; test: MIC, agar dilution; assay type: cell-based; settings: Neisseria gonorrhoeae, ATCC19424; N. gonorrhoeae ATCC 19424, ciprofloxacin-susceptible
Procedure: as §2

[16] = tested on: N. gonorrhoeae ATCC 49226; test: MIC, agar dilution; assay type: cell-based; settings: Neisseria gonorrhoeae, ATCC49226; N. gonorrhoeae ATCC 49226, ciprofloxacin-susceptible
Procedure: as §2

[17] = tested on: N. gonorrhoeae WHO K; test: MIC, agar dilution; assay type: cell-based; settings: Neisseria gonorrhoeae, ciprofloxacin-resistant
Procedure: as §2

[18] = tested on: N. gonorrhoeae WHO L; test: MIC, agar dilution; assay type: cell-based; settings: Neisseria gonorrhoeae, ciprofloxacin-resistant
Procedure: as §2

[19] = tested on: N. gonorrhoeae WHO N; test: MIC, agar dilution; assay type: cell-based; settings: Neisseria gonorrhoeae, ciprofloxacin-resistant
Procedure: as §2

[20] = tested on: E. coli TolC- mutant; test: microbe, parasite or virus in culture; assay type: cell-based; settings: Escherichia coli
Procedure: (§3) The bacterial reference strains used in this study were purchased from ATCC (American Type Culture Collection) via LGC Standards (Middlesex, UK). […] Clinical MDR isolates were provided by Aptuit, the IHMA Europa Sàrl repository (Epalinges, Switzerland) and the Statens Serum Institute (Copenhagen, Denmark).
as §2

[21] = tested on: E. faecalis clinical isolates (n = 12) vanA (6)/vanB (6); test: MIC, multidrug-resistant clinical isolates; assay type: cell-based; settings: Enterococcus faecalis
Procedure: as §3, §2
(§4) The results obtained using clinical isolates are reported as MIC50 and MIC90 values.

[22] = tested on: E. faecium clinical isolates (n = 12) vanA (6)/vanB (6); test: MIC, multidrug-resistant clinical isolates; assay type: cell-based; settings: Enterococcus faecium
Procedure: as §3, §2, §4

[23] = tested on: N. gonorrhoeae clinical isolates (n = 38); test: microbe, parasite or virus in culture; assay type: cell-based, Neisseria gonorrhoeae
Procedure: as §3, §2, §4

T3 sequence (P20831 whole entry): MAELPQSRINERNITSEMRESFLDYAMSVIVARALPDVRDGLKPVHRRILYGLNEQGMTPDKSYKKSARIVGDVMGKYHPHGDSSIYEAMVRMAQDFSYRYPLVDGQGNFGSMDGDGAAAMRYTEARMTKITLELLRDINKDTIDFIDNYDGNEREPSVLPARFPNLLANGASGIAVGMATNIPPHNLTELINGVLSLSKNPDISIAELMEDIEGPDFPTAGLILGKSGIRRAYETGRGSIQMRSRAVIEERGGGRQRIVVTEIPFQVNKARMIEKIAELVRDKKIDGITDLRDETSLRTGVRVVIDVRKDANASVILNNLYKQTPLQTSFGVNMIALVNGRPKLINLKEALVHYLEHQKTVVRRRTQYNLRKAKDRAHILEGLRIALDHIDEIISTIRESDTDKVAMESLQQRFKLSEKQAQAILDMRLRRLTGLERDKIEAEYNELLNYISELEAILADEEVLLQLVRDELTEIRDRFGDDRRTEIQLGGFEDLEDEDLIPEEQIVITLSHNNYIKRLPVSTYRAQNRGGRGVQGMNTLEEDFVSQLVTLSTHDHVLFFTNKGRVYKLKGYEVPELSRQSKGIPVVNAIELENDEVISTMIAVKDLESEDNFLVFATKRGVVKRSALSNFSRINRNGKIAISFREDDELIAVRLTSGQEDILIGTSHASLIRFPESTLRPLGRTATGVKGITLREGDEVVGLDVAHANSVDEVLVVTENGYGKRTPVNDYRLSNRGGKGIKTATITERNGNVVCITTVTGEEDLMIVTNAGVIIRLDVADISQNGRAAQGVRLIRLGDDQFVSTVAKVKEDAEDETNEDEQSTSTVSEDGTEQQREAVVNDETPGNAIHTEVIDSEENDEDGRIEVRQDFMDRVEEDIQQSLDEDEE
T3 sequence (P0A0K8 whole entry partner): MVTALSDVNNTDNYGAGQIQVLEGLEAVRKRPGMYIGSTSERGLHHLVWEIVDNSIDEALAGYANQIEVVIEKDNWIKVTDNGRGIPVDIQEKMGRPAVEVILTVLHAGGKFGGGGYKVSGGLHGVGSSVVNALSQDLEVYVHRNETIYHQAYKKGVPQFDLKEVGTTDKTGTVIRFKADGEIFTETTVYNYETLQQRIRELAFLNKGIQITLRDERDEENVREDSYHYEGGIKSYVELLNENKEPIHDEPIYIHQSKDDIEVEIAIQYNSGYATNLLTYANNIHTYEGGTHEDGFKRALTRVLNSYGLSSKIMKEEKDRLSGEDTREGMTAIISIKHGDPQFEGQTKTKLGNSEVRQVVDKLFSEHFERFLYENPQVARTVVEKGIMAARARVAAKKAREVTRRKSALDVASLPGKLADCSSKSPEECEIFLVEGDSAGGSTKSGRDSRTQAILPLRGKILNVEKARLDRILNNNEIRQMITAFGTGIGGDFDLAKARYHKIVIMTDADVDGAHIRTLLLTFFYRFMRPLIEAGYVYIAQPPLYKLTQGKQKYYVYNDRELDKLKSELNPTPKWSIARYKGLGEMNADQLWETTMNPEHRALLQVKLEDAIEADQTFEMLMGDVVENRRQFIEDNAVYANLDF
T1 sequence (P0AES4 whole entry): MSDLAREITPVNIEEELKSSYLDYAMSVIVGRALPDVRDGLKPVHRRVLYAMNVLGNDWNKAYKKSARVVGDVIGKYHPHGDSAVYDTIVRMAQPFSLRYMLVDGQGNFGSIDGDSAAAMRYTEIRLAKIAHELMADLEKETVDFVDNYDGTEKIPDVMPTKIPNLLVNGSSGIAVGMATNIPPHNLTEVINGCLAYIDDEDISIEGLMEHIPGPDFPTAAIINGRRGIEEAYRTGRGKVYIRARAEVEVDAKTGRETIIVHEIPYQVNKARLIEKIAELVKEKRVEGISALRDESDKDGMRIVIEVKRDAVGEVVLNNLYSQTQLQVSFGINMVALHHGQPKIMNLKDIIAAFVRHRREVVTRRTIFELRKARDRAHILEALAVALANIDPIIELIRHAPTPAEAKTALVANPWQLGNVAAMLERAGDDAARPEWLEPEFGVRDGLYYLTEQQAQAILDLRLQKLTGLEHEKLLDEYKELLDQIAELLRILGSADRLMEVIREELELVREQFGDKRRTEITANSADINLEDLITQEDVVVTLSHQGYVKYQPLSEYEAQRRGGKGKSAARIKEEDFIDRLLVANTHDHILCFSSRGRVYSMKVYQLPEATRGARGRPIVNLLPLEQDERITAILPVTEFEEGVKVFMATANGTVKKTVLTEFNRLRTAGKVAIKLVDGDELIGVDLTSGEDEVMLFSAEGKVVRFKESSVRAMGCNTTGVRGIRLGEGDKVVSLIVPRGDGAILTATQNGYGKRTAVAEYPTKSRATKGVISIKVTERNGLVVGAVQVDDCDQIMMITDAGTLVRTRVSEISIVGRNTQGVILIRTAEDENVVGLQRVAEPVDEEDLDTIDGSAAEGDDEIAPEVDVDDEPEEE
T5 sequence (P11388 whole entry): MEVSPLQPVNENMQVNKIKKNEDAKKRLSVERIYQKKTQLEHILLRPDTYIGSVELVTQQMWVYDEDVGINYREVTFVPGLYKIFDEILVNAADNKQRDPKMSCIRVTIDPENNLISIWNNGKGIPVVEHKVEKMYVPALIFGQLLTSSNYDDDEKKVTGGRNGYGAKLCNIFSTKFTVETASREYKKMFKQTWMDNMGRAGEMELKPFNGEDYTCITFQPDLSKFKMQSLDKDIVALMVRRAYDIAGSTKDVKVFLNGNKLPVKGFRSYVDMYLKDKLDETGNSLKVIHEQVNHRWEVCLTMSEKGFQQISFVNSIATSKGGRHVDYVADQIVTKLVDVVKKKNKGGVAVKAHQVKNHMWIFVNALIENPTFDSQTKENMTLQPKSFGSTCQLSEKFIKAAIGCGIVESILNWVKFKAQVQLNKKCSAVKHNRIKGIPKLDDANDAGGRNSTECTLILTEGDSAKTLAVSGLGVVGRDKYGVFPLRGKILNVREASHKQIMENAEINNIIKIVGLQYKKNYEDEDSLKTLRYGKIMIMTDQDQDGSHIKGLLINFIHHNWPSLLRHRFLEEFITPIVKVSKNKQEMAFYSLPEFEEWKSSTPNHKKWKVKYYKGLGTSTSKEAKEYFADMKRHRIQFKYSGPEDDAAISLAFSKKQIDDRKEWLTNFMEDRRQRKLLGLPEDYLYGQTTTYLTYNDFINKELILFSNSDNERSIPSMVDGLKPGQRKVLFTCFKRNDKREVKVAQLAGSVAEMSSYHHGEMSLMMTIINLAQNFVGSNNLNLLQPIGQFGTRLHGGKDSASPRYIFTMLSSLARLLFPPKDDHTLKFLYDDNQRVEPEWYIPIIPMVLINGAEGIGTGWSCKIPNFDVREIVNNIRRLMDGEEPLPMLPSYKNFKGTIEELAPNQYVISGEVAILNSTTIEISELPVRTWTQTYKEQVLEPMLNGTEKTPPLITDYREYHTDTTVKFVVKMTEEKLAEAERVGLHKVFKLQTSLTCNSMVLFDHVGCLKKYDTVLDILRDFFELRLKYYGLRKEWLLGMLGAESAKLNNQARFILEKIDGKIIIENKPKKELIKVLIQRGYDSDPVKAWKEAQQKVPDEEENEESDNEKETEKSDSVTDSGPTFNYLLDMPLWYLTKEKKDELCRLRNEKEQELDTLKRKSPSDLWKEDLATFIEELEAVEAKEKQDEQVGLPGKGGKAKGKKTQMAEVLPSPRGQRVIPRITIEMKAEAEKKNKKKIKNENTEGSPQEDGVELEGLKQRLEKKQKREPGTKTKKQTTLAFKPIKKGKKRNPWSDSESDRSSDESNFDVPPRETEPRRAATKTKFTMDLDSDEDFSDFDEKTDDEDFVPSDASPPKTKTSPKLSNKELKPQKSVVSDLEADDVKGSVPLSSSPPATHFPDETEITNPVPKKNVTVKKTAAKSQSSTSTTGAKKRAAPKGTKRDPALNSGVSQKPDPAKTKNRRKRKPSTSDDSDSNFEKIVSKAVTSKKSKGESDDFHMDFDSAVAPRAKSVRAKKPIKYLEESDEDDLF

O=c1oc2ccc(F)cc2c2[nH]c(CN[C@H]3CC[C@H](n4c(=O)cnc5ncc(F)cc54)CC3)cc12 [Compound 4, 8-fluoro-2-({[trans-4-(7-fluoro-2-oxopyrido[2,3-b]pyrazin-1(2H)-yl)cyclohexyl]amino}methyl)[1]benzopyrano[4,3-b]pyrrol-4(1H)-one (formate salt)]
IC50 ([1]; average of two replicate experiments, read-out: IC50 E. coli Gyrase Supercoiling (average)): 130 nM | IC50 ([1]; replicate Assay 1, read-out: IC50 E. coli gyrase Supercoiling, Assay 1): 150 nM | IC50 ([1]; replicate Assay 2, read-out: IC50 E. coli gyrase Supercoiling, Assay 2): 120 nM | IC50 ([2]; average of two replicate experiments, read-out: IC50 E. coli Topoisomerase IV decatenation (average)): 300 nM | IC50 ([2]; replicate Assay 1, read-out: IC50 E. coli Topoisomerase IV decatenation, Assay 1): 500 nM | IC50 ([2]; replicate Assay 2, read-out: IC50 E. coli Topoisomerase IV decatenation, Assay 2): 200 nM | IC50 ([3]; average of two replicate experiments, read-out: IC50 S. aureus Gyrase Supercoiling (average)): 1000 nM | IC50 ([3]; replicate Assay 1, read-out: IC50 S.aureus gyrase Supercoiling, Assay 1): 800 nM | IC50 ([3]; replicate Assay 2, read-out: IC50 S.aureus gyrase Supercoiling, Assay 2): 1200 nM | IC50 [4]: 220 nM | IC50 ([4]; replicate Assay 1, read-out: IC50 S. aureus Topoisomerase IV decatenation, Assay 1): 260 nM | IC50 ([4]; replicate Assay 2, read-out: IC50 S. aureus Topoisomerase IV decatenation, Assay 2): 170 nM | IC50 ([5]; average of two replicate experiments, read-out: IC50 Human Topoisomerase II decatenation (average)): > 300000 nM | IC50 ([5]; replicate Assay 1, read-out: IC50 Human Topoisomerase II (TopoII) decatenation, Assay 1): > 300000 nM | IC50 ([5]; replicate Assay 2, read-out: IC50 Human Topoisomerase II (TopoII) decatenation, Assay 2): > 300000 nM | MIC [6]: 0.25 µg/mL | MIC [7]: 0.5 µg/mL | MIC [8]: 0.5 µg/mL | MIC [9]: 0.12 µg/mL | MIC [10]: 4 µg/mL | MIC [11]: 2 µg/mL | MIC [12]: 0.5 µg/mL | MIC [13]: 0.25 µg/mL | MIC [14]: 0.12 µg/mL | MIC [15]: ≤ 0.06 µg/mL | MIC [16]: 0.06 µg/mL | MIC [17]: 0.12 µg/mL | MIC [18]: 0.12 µg/mL | MIC [19]: 0.06 µg/mL | MIC [20]: ≤ 0.016 µg/mL | MIC50 [21]: 0.25 µg/mL | MIC90 [21]: 0.5 µg/mL | MIC ([21]; read-out: MIC range): 0.12 to 1 µg/mL | MIC50 [22]: 1 µg/mL | MIC90 [22]: 1 µg/mL | MIC ([22]; read-out: MIC range): 0.25 to 8 µg/mL | MIC range [23]: 0.004 to 0.12 µg/mL | MIC50 ([23]; Neisseria gonorrhoeae): 0.06 µg/mL | MIC90 ([23]; Neisseria gonorrhoeae): 0.12 µg/mL
